Experimental data taken from paper PMC8151276, “An Integrated Approach toward NanoBRET Tracers for Analysis of GPCR Ligand Engagement” (Molecules, 2021).

Target: T1, LGR6 (Homo sapiens, UniProt Q9HBX8)
T1 construct: purchased Promega (in-house HiBiT-GPCR construct library, NanoBRET)
T1 sequence (Q9HBX8 25-967): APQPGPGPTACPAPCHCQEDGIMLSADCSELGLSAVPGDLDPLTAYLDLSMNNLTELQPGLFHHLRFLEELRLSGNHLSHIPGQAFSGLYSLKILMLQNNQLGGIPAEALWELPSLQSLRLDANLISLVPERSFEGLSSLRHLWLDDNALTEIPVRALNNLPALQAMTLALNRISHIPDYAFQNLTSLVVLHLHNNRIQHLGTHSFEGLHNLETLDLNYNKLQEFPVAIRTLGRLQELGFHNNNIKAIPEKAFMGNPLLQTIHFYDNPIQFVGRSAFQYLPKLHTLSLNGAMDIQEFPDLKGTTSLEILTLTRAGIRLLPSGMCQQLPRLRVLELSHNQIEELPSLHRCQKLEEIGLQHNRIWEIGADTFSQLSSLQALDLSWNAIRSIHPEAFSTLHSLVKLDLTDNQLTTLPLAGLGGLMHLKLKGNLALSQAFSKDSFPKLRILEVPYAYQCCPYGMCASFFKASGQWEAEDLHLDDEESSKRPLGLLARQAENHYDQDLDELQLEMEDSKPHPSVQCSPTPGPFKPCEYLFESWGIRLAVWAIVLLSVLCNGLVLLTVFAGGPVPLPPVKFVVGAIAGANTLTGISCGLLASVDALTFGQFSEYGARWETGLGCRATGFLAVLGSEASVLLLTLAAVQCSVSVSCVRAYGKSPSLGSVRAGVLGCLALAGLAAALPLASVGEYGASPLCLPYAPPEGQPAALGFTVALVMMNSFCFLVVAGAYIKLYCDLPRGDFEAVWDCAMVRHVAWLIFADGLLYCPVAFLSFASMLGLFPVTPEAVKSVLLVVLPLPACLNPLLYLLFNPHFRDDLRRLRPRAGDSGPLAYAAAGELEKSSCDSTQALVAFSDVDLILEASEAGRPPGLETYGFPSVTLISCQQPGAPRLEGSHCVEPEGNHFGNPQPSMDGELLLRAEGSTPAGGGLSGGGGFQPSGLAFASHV
Assay: NanoBRET screen HiBiT-LGR6 in HEK293
Type: binding
Description: Each tracer candidate was screened across the entire library of HiBiT-GPCR constructs using NanoBRET as the detection modality. As depicted in Figure 4A, the specificity of interactions was evaluated through decrease in BRET due to competitive displacement of a bound tracer by excess parental compound. Each tracer was analyzed for binding to each HiBiT-GPCR fusion in the absence and in the presence of competing parental compound. Briefly, HEK293 cells were transfected with HiBiT-GPCR constructs diluted into promoterless DNA to reduce expression and maximize translocation to the cell surface. Each tracer candidate was then screened at concentrations of 1 μM and 0.1 μM across cells expressing these fusions. Cells were treated for 1.5 h with tracer either alone or in the presence of 20 μM competing parental compound (i.e., control). BRET was measured upon addition of purified LgBiT and subsequent complementation with HiBiT genetically fused to a GPCR. The specificity of interactions was assessed through a decrease in BRET signal due to competitive displacement of the bound tracer. To further gauge the robustness of these interactions, the fold response over the control (i.e., BRETtracer/BRETcontrol) was calculated. We chose a 1.5-fold response, which translates to ≥7-fold signal over noise as the minimal threshold required to score an interaction as positive. […]. Below we highlight the screening results obtained for our exemplary fluorescent tracers based on Clozapine, Amitriptyline and AZD1283.
HiBiT-GPCR DNA constructs were diluted in 10 mM Tris pH 8 to a final concentration of 0.01 μg/μL, arrayed in 96-well plates and stored at −20 °C. For transfection, HEK293 cells were suspended in Opti-MEM (without phenol red) supplemented with 2% fetal bovine serum (Seradigm) and 100 units/mL penicillin–streptomycin (Gibco) at a final concentration of 220,000 cells/mL and dispensed into white 96-well plates at 90 μL/well. Subsequent transfections and screens were carried using an Agilent Bravo Automated Liquid Handling Platform. First, the 96-well HiBiT DNA arrays were diluted 25-fold in Opti-MEM (without serum or phenol red) to a final concentration of 0.0004 μg/μL and 20 μL of the diluted DNAs were transferred into new 96-well plates. Next, promoterless carrier DNA (1 μg/μL) was diluted 25-fold (0.04 μg/μL) and then dispensed into the diluted arrays at 20 μL/well. Following brief mixing, Viafect transfection reagent (Promega) diluted 16-fold into Opti-MEM was dispensed into the plates at 40 μL/well. After mixing by pipetting, plates were incubated for 10 min on the pipetting station deck. The DNA-transfection reagent complexes were then added to plates containing cells. To facilitate the screen, 10 μL of DNA-transfection reagent complexes were added in duplicates to the top 4 and bottom 4 rows, resulting in two identical 48-well arrays per plate. Plates with transfected cells were incubated for 18–20 h at 37 °C/5% CO2. A screen of each tracer across the entire library using two different concentrations requires duplicate plates of transfected cells. Depending on the number of tracers being screened, transfections can be scaled up using the same ratios. The next day, for each tracer, four 20× screening solutions in tracer dilution buffer (Promega) were prepared: two duplicates at final concentration of 20 μM and two duplicates at a final concentration of 2 μM. A competing unmodified compound was added to one of each duplicate at a final concentration of 400 μM. The four resulting solutions were diluted 4-fold in Opti-MEM without serum or phenol red to generate 5× solutions (5 µM and 0.5 µM tracer +/− 100 μM competing compound). To screen the library, a BioTek MultiFlo FX liquid dispenser was used to dispense 22.5 µL of tracer solution to the top 4 rows and 22.5 µL tracer + competing compound solution to the 4 bottom rows. Plates were briefly mixed on an orbital shaker and incubated for 1.5 h at room temperature. […]

## CN1CCN(C2=Nc3cc(Cl)ccc3Nc3ccc(CNC(=O)CCOCCOCCOCCOCCNC(=O)CCc4ccc5n4[B-](F)(F)[N+]4=C(c6ccc[nH]6)C=CC4=C5)cc32)CC1 [Clozapine-b-2-NB590]
LGR6, 0.1μM tracer
  NanoBRET Fold Response: 1.31
LGR6, 1μM tracer
  NanoBRET Fold Response: 0.89

## CN(C)CCC=C1c2ccccc2CCc2ccc(C(=O)NCCNC(=O)CCOCCOCCOCCOCCNC(=O)CCc3ccc4n3[B-](F)(F)[N+]3=C(c5ccc[nH]5)C=CC3=C4)cc21 [Amitriptyline-b-2-NB590]
Tracer at 0.1μM, listed as amitriptyline-b-2-NB590
  NanoBRET Fold Response: 0.92
Tracer at 1μM, listed as amitriptyline-b-2-NB590
  NanoBRET Fold Response: 1.14

## CCOC(=O)c1cc(C#N)c(N2CCC(C(=O)NS(=O)(=O)Cc3ccccc3/C=C/C(=O)NCCNC(=O)CCc3ccc4n3[B-](F)(F)[N+]3=C(c5ccc[nH]5)C=CC3=C4)CC2)nc1C [AZD1283-1-NB590]
LGR6, 0.1μM
  NanoBRET Fold Response: 1.27
LGR6, 1μM
  NanoBRET Fold Response: 0.90

## CC(C)N(CC[C@H](c1ccccc1)c1cc(CCNC(=O)CCOCCOCCOCCOCCNC(=O)CCc2ccc3n2[B-](F)(F)[N+]2=C(c4ccc[nH]4)C=CC2=C3)ccc1O)C(C)C [Tolterodine-2-NB590]
LGR6, tracer 0.1μM
  NanoBRET Fold Response: 1.39
LGR6, tracer 1μM
  NanoBRET Fold Response: 1.36

## CC(C)N(CC[C@H](c1ccccc1)c1cc(CCNC(=O)c2ccc(CNC(=O)CCc3ccc4n3[B-](F)(F)[N+]3=C(c5ccc[nH]5)C=CC3=C4)cc2)ccc1O)C(C)C [Tolterodine-BZ-NB590]
LGR6, tracer 0.1μM
  NanoBRET Fold Response: 1.31
LGR6, tracer 1μM
  NanoBRET Fold Response: 0.94

## O=C(CCOCCOCCOCCOCCNC(=O)CCc1ccc2n1[B-](F)(F)[N+]1=C(c3ccc[nH]3)C=CC1=C2)NCCCN1CCN(C2=Nc3ccccc3Oc3ccc(Cl)cc32)CC1 [Loxapine-a-2-NB590]
LGR6, tracer 0.1μM
  NanoBRET Fold Response: 0.91
LGR6, tracer 1μM
  NanoBRET Fold Response: 1.25

## CN1CCN(C2=Nc3cc(Cl)ccc3N(CC(=O)NCCOCCOCCOCCOCCNC(=O)CCc3ccc4n3[B-](F)(F)[N+]3=C(c5ccc[nH]5)C=CC3=C4)c3ccccc32)CC1 [Clozapine-c-2-NB590]
LGR6, 0.1μM tracer
  NanoBRET Fold Response: 0.89
LGR6, 1μM tracer
  NanoBRET Fold Response: 0.91

## CN(C)CCC=C1c2ccccc2CCc2ccc(C(=O)NCCNC(=O)CCOCCOCCOCCOCCNC(=O)CCc3ccc4n3[B-](F)(F)[N+]3=C(c5ccc[nH]5)C=CC3=C4)cc21 [Amitriptyline-a-2-NB590]
Tracer at 0.1μM
  NanoBRET Fold Response: 0.93
Tracer at 1μM
  NanoBRET Fold Response: 0.97

## Cc1nc2n(c(=O)c1CCN1CCC(c3noc4cc(F)ccc34)CC1)CCCC2OC(=O)NCCOCCOCCOCCOCCNC(=O)CCc1ccc2n1[B-](F)(F)[N+]1=C(c3ccc[nH]3)C=CC1=C2 (stereo not drawn) [Risperidone-2-NB590]
LGR6, tracer 0.1μM
  NanoBRET Fold Response: 1.04
LGR6, tracer 1μM
  NanoBRET Fold Response: 1.02

## COc1ccc2[nH]c(-c3ccc(CNC(=O)CCOCCOCCOCCOCCNC(=O)CCc4ccc5n4[B-](F)(F)[N+]4=C(c6ccc[nH]6)C=CC4=C5)cc3)c(CCNC(C)=O)c2n1 [AzomelatoninICO9-2-NB590]
0.1μM tracer
  NanoBRET Fold Response: 0.62
1μM tracer
  NanoBRET Fold Response: 0.95

## O=C(CCc1ccc2n1[B-](F)(F)[N+]1=C(c3ccc[nH]3)C=CC1=C2)NCCOCCOCCNC(=O)OCCOCCN1CCN(C2=Nc3ccccc3Sc3ccccc32)CC1 [Quetiapine-a-2-NB590]
LGR6, tracer 0.1μM
  NanoBRET Fold Response: 0.93
LGR6, tracer 1μM
  NanoBRET Fold Response: 0.96

## O=C(CCOCCOCCOCCOCCNC(=O)CCc1ccc2n1[B-](F)(F)[N+]1=C(c3ccc[nH]3)C=CC1=C2)NCCCN1CCN(C2=Nc3cc(Cl)ccc3Nc3ccccc32)CC1 [Clozapine-a-2-NB590]
LGR6, 0.1μM tracer
  NanoBRET Fold Response: 1.03
LGR6, 1μM tracer
  NanoBRET Fold Response: 0.66

## N#CN=C(NCCCOc1cccc(CN2CCCCC2)c1)NCCNC(=O)CCOCCOCCOCCOCCNC(=O)CCc1ccc2n1[B-](F)(F)[N+]1=C(c3ccc[nH]3)C=CC1=C2 [Aminopotentidine-2-NB590]
LGR6, tracer 0.1μM
  NanoBRET Fold Response: 0.96
LGR6, tracer 1μM
  NanoBRET Fold Response: 0.88

## O=C(CCc1ccc2n1[B-](F)(F)[N+]1=C(c3ccc[nH]3)C=CC1=C2)NCc1ccc(C(=O)NCCOCCOCCNCC(O)COc2cccc3ccccc23)cc1 (stereo not drawn) [Propranolol-3-NB590]
LGR6, 0.1μM
  NanoBRET Fold Response: 1.26
LGR6, 1μM
  NanoBRET Fold Response: 1.01

## O=C(CCc1ccc2n1[B-](F)(F)[N+]1=C(c3ccc[nH]3)C=CC1=C2)NCc1ccc(C(=O)NCCOCCC(=O)N[C@@H]2CC[C@@]3(O)[C@H]4Cc5ccc(O)c6c5[C@@]3(CCN4CC3CC3)[C@H]2O6)cc1 [Naltrexone-3-NB590]
LGR6, tracer 0.1μM
  NanoBRET Fold Response: 1.22
LGR6, tracer 1μM
  NanoBRET Fold Response: 0.79

## COc1ccccc1N1CCN(CCCCN2C(=O)c3ccc(CNC(=O)CCOCCNC(=O)c4ccc(CNC(=O)CCc5ccc6n5[B-](F)(F)[N+]5=C(c7ccc[nH]7)C=CC5=C6)cc4)cc3C2=O)CC1 [NAN-190-3-NB590]
LGR6, tracer 0.1μM
  NanoBRET Fold Response: 1.39
LGR6, tracer 1μM
  NanoBRET Fold Response: 0.60

## Cc1cc2c(s1)Nc1ccccc1N=C2N1CCN(CCCNC(=O)CCOCCOCCOCCOCCNC(=O)CCc2ccc3n2[B-](F)(F)[N+]2=C(c4ccc[nH]4)C=CC2=C3)CC1 [Olanzapine-a-2-NB590]
LGR6, tracer 0.1μM
  NanoBRET Fold Response: 1.09
LGR6, tracer 1μM
  NanoBRET Fold Response: 1.22

## CCCn1c(=O)c2[nH]c(-c3ccc(OCC(=O)NCCNC(=O)CCOCCNC(=O)c4ccc(CNC(=O)CCc5ccc6n5[B-](F)(F)[N+]5=C(c7ccc[nH]7)C=CC5=C6)cc4)cc3)nc2n(CCC)c1=O [XAC-3-NB590]
LGR6, tracer 0.1μM
  NanoBRET Fold Response: 0.99
LGR6, tracer 1μM
  NanoBRET Fold Response: 0.90

## CN(CCC=C1c2ccccc2CCc2ccccc21)C(=O)CCOCCOCCOCCOCCNC(=O)CCc1ccc2n1[B-](F)(F)[N+]1=C(c3ccc[nH]3)C=CC1=C2 [Amitriptyline-e-2-NB590]
Tracer at 1μM
  NanoBRET Fold Response: 1.16

## COc1ccc2c(n1)c(CCNC(C)=O)cn2CCNC(=O)CCc1ccc2n1[B-](F)(F)[N+]1=C(c3ccc[nH]3)C=CC1=C2 [Azamelatonin-1-NB590]
0.1μM tracer
  NanoBRET Fold Response: 1.03
1μM tracer
  NanoBRET Fold Response: 0.55
